Laboratory results published in US12180207B2 (ARRAY BIOPHARMA INC., priority 2018, dated 2024).

Assays:
[1] = molecular target: recombinant human FGFR1 catalytic domain (amino acids 308-731) (Homo sapiens (Human), UniProt P11362); assay: FGFR1 enzyme activity assay (LanthaScreen TR-FRET); assay type: biochemical; settings: 20 min incubation at 22° C., average of multiple determinations if made, read-out: FGFR1 Enz FRET IC50
In short: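 His-tagged FGFR1 kinase domain with 100 nM Alexa Fluor 647-poly-GT peptide and ATP in pH 7.5 HEPES/MgCl2 buffer with 2% DMSO, 20 min at 22 °C. Quenched with EDTA plus 2 nM Eu-PY20 antibody and read after 60 min. IC50 comes from a 4-parameter fit of percent of control.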

[2] = molecular target: recombinant human FGFR2 cytoplasmic domain (amino acids 403-822) (Homo sapiens (Human), UniProt P21802); assay: FGFR2 enzyme activity assay (LanthaScreen TR-FRET); assay type: biochemical; settings: 15 μM ATP, 20 min incubation at 22° C., average of multiple determinations if made, read-out: FGFR2 Enz FRET IC50
Sequence of recombinant human FGFR2 cytoplasmic domain (amino acids 403-822) (P21802 402-821): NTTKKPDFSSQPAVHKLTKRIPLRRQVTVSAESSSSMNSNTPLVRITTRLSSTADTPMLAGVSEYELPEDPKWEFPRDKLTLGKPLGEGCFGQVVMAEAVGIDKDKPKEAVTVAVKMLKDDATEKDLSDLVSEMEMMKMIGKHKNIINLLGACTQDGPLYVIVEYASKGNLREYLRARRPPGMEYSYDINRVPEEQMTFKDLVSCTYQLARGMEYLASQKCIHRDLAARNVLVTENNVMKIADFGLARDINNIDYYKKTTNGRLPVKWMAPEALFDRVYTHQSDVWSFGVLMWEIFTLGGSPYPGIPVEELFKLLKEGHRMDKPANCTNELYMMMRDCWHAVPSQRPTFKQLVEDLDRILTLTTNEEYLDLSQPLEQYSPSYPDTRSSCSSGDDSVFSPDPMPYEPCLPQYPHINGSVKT
In short: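 His-tagged FGFR2 cytoplasmic domain ([…]) with 100 nM Alexa Fluor 647-poly-GT peptide and 15 μM ATP in HEPES/MgCl2/Triton buffer, pH 7.5, 2% DMSO, 20 min at 22 °C. EDTA-quenched, Eu-PY20 antibody added, TR-FRET read after 60 min.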

[3] = molecular target: recombinant human FGFR3 (amino acids R397-T806) (Homo sapiens (Human), UniProt P22607); assay: FGFR3 enzyme activity assay (LanthaScreen TR-FRET); assay type: biochemical; settings: 25 μM ATP, 10 min incubation at 22° C., average of multiple determinations if made, read-out: FGFR3 Enz FRET IC50
Sequence of recombinant human FGFR3 (amino acids R397-T806) (P22607 397-806): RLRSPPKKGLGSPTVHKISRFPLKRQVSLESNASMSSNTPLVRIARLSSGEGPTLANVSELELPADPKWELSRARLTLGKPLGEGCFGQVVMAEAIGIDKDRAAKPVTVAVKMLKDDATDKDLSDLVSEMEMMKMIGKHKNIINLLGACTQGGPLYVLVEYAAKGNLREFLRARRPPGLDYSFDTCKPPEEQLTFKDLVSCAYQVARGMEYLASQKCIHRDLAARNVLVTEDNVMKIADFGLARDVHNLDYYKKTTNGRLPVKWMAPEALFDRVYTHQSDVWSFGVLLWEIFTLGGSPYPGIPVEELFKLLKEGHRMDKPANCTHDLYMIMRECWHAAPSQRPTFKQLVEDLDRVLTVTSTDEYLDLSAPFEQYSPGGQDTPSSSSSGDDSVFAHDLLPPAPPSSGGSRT
In short: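 GST-HIS6-tagged human FGFR3 (R397-T806) was reacted with 100 nM Alexa Fluor 647-Poly-GT substrate and 25 μM ATP plus compound in HEPES/MgCl2/Triton buffer, pH 7.5, 2% DMSO, for 10 min at 22 °C.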

[4] = molecular target: FGFR1 (SEQ ID NO: 1, amino acids 458-765) (Homo sapiens (Human), UniProt P11362); assay: LC/MS FGFR1 kobs assay (covalent protein modification); assay type: binding; settings: 500 nM FGFR1, 3 μM compound
Sequence of FGFR1 (SEQ ID NO: 1, amino acids 458-765) (P11362 458-765): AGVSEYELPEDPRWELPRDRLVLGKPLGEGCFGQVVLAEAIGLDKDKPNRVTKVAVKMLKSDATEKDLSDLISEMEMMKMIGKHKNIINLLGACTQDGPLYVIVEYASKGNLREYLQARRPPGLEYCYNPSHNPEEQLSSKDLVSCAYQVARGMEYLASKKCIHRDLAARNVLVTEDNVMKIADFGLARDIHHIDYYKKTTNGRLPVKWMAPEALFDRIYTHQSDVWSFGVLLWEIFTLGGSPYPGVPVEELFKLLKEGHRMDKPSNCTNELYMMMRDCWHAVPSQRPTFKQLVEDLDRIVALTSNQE
In short: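 Covalent labeling of FGFR1 kinase domain (aa 458-765) tracked over time by intact-protein LC/MS after formic acid quench. kobs derived by fitting DMSO-normalized percent unmodified FGFR1 to an exponential decay model.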

[5] = molecular target: FGFR3 (SEQ ID NO: 5, amino acids 449-759) (Homo sapiens (Human), UniProt P22607); assay: LC/MS FGFR3 kobs assay (covalent protein modification); assay type: binding; settings: 500 nM FGFR3, 3 μM compound
Sequence of FGFR3 (SEQ ID NO: 5, amino acids 449-759) (P22607 449-759): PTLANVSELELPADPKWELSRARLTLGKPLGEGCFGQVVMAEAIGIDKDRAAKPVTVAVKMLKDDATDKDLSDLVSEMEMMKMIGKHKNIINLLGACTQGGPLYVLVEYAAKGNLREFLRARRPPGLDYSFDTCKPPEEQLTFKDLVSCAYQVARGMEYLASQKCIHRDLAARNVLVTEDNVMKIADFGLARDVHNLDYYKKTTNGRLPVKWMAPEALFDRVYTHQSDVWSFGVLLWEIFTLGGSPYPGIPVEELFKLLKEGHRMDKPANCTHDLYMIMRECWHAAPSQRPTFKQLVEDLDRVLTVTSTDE
In short: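 The observed rate constant kobs comes from an exponential decay fit of percent unmodified kinase over time. Covalent modification was quantified by Q-TOF LC/MS of formic acid-quenched samples, normalized against DMSO controls.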

Sequence of recombinant human FGFR1 catalytic domain (amino acids 308-731) (P11362 other isoform, or with tags, fused parts or gaps): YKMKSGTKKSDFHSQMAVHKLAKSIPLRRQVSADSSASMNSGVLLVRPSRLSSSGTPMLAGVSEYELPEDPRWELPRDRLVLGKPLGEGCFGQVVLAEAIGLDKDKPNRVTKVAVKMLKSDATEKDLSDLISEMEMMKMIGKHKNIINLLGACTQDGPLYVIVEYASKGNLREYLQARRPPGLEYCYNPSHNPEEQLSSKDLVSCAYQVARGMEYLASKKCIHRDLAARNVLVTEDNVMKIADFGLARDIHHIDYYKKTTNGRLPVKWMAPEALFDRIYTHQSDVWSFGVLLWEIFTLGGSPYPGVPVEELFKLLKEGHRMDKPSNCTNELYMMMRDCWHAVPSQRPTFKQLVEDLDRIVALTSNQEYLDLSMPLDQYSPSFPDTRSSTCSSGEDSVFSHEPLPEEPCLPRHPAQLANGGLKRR

| Structure (SMILES) | IC50 [1] [nM] | IC50 [2] [nM] | IC50 [3] [nM] | FGFR1 Enz kobs [4] [min⁻¹] | FGFR3 Enz kobs [5] [min⁻¹] |
| --- | --- | --- | --- | --- | --- |
| C=CC(=O)N1C2COCC1CN(C(=O)N1CCC(n3cc(-c4cc(OC)c5c(C#N)cnn5c4)cn3)CC1)C2 [Example 3, 6-(1-(1-(9-acryloyl-3-oxa-7,9-diazabicyclo[3.3.1]nonane-7-carbonyl)piperidin-4-yl)-1H-pyrazol-4-yl)-4-methoxypyrazolo[1,5-a]pyridine-3-carbonitrile] | 8 | 5 | 2 | 0.00172 | 0.01875 |
| C=CC(=O)N1CC(C(=O)N2CCC(n3cc(-c4cc(OC)c5c(C#N)cnn5c4)cn3)CC2)C1C (stereo not shown) [Example 42, 6-(1-(1-(1-acryloyl-2-methylazetidine-3-carbonyl)piperidin-4-yl)-1H-pyrazol-4-yl)-4-methoxypyrazolo[1,5-a]pyridine-3-carbonitrile] | 11 | 6 | 2 | 0.00113 | 0.01575 |
| C=CC(=O)N1CC(C)(C(=O)N2CCC(n3cc(-c4cc(OC)c5c(C#N)cnn5c4)cn3)CC2)C1 [Example 38, 6-(1-(1-(1-acryloyl-3-methylazetidine-3-carbonyl)piperidin-4-yl)-1H-pyrazol-4-yl)-4-methoxypyrazolo[1,5-a]pyridine-3-carbonitrile] | 10 | 3 | 3 | 0.00134 | 0.01168 |
| C=CC(=O)N1CC(C(=O)N2C3CC2CN(c2ccc(-c4cc(OC)c5c(C#N)cnn5c4)cn2)C3)C1 [Example 52, 6-(6-(6-(1-acryloylazetidine-3-carbonyl)-3,6-diazabicyclo[3.1.1]heptan-3-yl)pyridin-3-yl)-4-methoxypyrazolo[1,5-a]pyridine-3-carbonitrile] | 66 | 14 | 34 | 0.00086 | 0.00929 |
| C=CC(=O)N1CCC(C#N)(C(=O)N2CCC(n3cc(-c4cc(OC)c5c(C#N)cnn5c4)cn3)CC2)CC1 [Example 14, 6-(1-(1-(1-acryloyl-4-cyanopiperidine-4-carbonyl)piperidin-4-yl)-1H-pyrazol-4-yl)-4-methoxypyrazolo[1,5-a]pyridine-3-carbonitrile] | 8 | 3 | 3 | 0.00069 | 0.00997 |
| C=CC(=O)N1CC[C@H](C(=O)N2CCC(n3cc(-c4cc(OC)c5c(C#N)cnn5c4)cn3)CC2)C1 [Example 28, (S)-6-(1-(1-(1-acryloylpyrrolidine-3-carbonyl)piperidin-4-yl)-1H-pyrazol-4-yl)-4-methoxypyrazolo[1,5-a]pyridine-3-carbonitrile] | 18 | 5 | 9 | 0.00075 | 0.00294 |
| C=CC(=O)Nc1cccc(C(=O)N2CCC(n3cc(-c4cc(OC)c5c(C#N)cnn5c4)cn3)CC2)c1 [Example 22, N-(3-(4-(4-(3-cyano-4-methoxypyrazolo[1,5-a]pyridin-6-yl)-1H-pyrazol-1-yl)piperidine-1-carbonyl)phenyl)acrylamide] | 21 | 5 | 4 | 0.00187 | 0.0108 |
| C=CC(=O)N1CC(F)(C(=O)N2CCC(n3cc(-c4cc(OC)c5c(C#N)cnn5c4)cn3)CC2)C1 [Example 37, 6-(1-(1-(1-acryloyl-3-fluoroazetidine-3-carbonyl)piperidin-4-yl)-1H-pyrazol-4-yl)-4-methoxypyrazolo[1,5-a]pyridine-3-carbonitrile] | 16 | 7 | 4 | 0.00447 | 0.07092 |

Next, values leading:

| IC50 [1] [nM] | IC50 [2] [nM] | IC50 [3] [nM] | FGFR1 Enz kobs [4] [min⁻¹] | FGFR3 Enz kobs [5] [min⁻¹] | Structure (SMILES) |
| --- | --- | --- | --- | --- | --- |
| 52 | 17 | 13 | 0.0007 | 0.00317 | C=CC(=O)N1CC[C@H](C(=O)N2CC(n3cc(-c4cc(OC)c5c(C#N)cnn5c4)cn3)C2)C1 [Example 76, (S)-6-(1-(1-(1-acryloylpyrrolidine-3-carbonyl)azetidin-3-yl)-1H-pyrazol-4-yl)-4-methoxypyrazolo[1,5-a]pyridine-3-carbonitrile] |
| 17 | 23 | 12 | 0.00146 | 0.01629 | C=CC(=O)N1CC(C(=O)N2CC(n3cc(-c4cc(OC)c5c(C#N)cnn5c4)cn3)C2)C1 [Example 78, 6-(1-(1-(1-acryloylazetidine-3-carbonyl)azetidin-3-yl)-1H-pyrazol-4-yl)-4-methoxypyrazolo[1,5-a]pyridine-3-carbonitrile] |
| 73 | 9 | 10 | 0.00034 | 0.00319 | C=CC(=O)N1CCC(C(=O)N2CCC(n3ncc(-c4cc(OC)c5c(C#N)cnn5c4)c3C)CC2)CC1 [Example 82, 6-(1-(1-(1-acryloylpiperidine-4-carbonyl)piperidin-4-yl)-5-methyl-1H-pyrazol-4-yl)-4-methoxypyrazolo[1,5-a]pyridine-3-carbonitrile] |
| 6 | 4 | 5 | 0.00181 | 0.0095 | C=CC(=O)Nc1ccc(C(=O)N2CC[C@H](n3cc(-c4cc(OC)c5c(C#N)cnn5c4)cn3)C2)c(C)c1 [Example 68, (S)-N-(4-(3-(4-(3-cyano-4-methoxypyrazolo[1,5-a]pyridin-6-yl)-1H-pyrazol-1-yl)pyrrolidine-1-carbonyl)-3-methylphenyl)acrylamide] |
| 20 | 4 | 4 | 0.00108 | 0.00908 | C=CC(=O)N1CC(C(=O)N2CC[C@H](n3cc(-c4cc(OC)c5c(C#N)cnn5c4)cn3)C2)C1 [Example 73, (S)-6-(1-(1-(1-acryloylazetidine-3-carbonyl)pyrrolidin-3-yl)-1H-pyrazol-4-yl)-4-methoxypyrazolo[1,5-a]pyridine-3-carbonitrile] |
| 77 | 9 | 7 | 0.00058 | 0.00547 | C=CC(=O)N1CC[C@@H](C(=O)N2CCC(n3ncc(-c4cc(OC)c5c(C#N)cnn5c4)c3C)CC2)C1 [Example 83, (R)-6-(1-(1-(1-acryloylpyrrolidine-3-carbonyl)piperidin-4-yl)-5-methyl-1H-pyrazol-4-yl)-4-methoxypyrazolo[1,5-a]pyridine-3-carbonitrile] |
| 100 | 15 | 6 | 0.00183 | 0.02394 | C=CC(=O)N1CC(C(=O)N2CCC(n3ncc(-c4cc(OC)c5c(C#N)cnn5c4)c3C)CC2)C1 [Example 84, 6-(1-(1-(1-acryloylazetidine-3-carbonyl)piperidin-4-yl)-5-methyl-1H-pyrazol-4-yl)-4-methoxypyrazolo[1,5-a]pyridine-3-carbonitrile] |
| 19 | 5 | 4 | 0.00583 | 0.02236 | C=CS(=O)(=O)N[C@@H]1CC[C@H](C(=O)N2CCC(n3cc(-c4cc(OC)c5c(C#N)cnn5c4)cn3)CC2)C1 [Example 191, N-((1R,3S)-3-(4-(4-(3-cyano-4-methoxypyrazolo[1,5-a]pyridin-6-yl)-1H-pyrazol-1-yl)piperidine-1-carbonyl)cyclopentyl)-ethenesulfonamide] |
| 376 | 127 | 41 | 0.0012 | 0.00896 | C=CC(=O)N1CC(C)(CN2CC(n3ncc(-c4cc(OC)c5c(C#N)cnn5c4)c3C)C2)C1 [Example 93, 6-(1-(1-((1-acryloyl-3-methylazetidin-3-yl)methyl)azetidin-3-yl)-5-methyl-1H-pyrazol-4-yl)-4-methoxypyrazolo[1,5-a]pyridine-3-carbonitrile] |
